According to patent EP0012435A2, “Isoxazole derivatives, process for their preparation, medicines containing them and intermediates required in this process” (HOECHST AKTIENGESELLSCHAFT, priority 1978, dated 1980):
Marks after values point to notes of the source that are not given here.

How the values were obtained:
[1] = tested on: männliche Ratten eines Wistar-Lewis-Stammes; test: Adjuvant arthritis, preventive test (method of Pearson); assay type: in vivo; details: for ED50: Rattus norvegicus, 408 h, read-out: Adjuvans-Arthritis ED50; for Therapeut. Index UD50 / ED50: ratio of ulcerogenic UD50 to adjuvant arthritis ED50
From the text: 1. Adjuvans-Arthritis, praeventive Testung
Die Untersuchungen wurden nach der Methode von Pearson durchgeführt (Arthrit. Rheum. 2, 440 (1959)). Als Versuchstiere dienten männliche Ratten eines Wistar-Lewis-Stammes im Körpergewicht zwischen 130 und 200 g. Die zu prüfenden Verbindungen wurden täglich vom 1. bis 17. Versuchstag oral appliziert. Tiere einer Kontrollgruppe erhielten nur das Lösungsmittel. Als Wirkungskriterium diente die Herabsetzung der Pfoten-Volumenzunahme gegenüber der unbehandelten Kontrollgruppe. Die ED50-Werte wurden graphisch aus der Dosiswirkungskurve bestimmt.

Acute toxicity = details: mouse, in vivo, ip; NMRI mice, intraperitoneal, mortality within 7 days; read-out: Toxizität LD50-Bereich (Maus i.p.)
From the text: Die Bestimmung der LD50-Bereiche erfolgte standardgemäß über die innerhalb von 7 Tagen bei NMRI-Mäusen nach intraperitonealer Gabe auftretende Mortalität.

[2] = Ulcerogenic effect (gastric mucosal lesions after oral dose); assay type: in vivo, Ratten; details: rat, gastric mucosa, fasted rats, killed 24 h after dose, UD50 by Litchfield and Wilcoxon, read-out: Ulzerogenität UD50
From the text: (§1) Die Untersuchungen erfolgten an männlichen Sprague-Dawley Ratten im Körpergewicht zwischen 200 und 300 g. 48 Stunden vor Applikation der Testsubstanzen bis zum Töten der Tiere wurde das Futter entzogen, bei freiem Zugang zum Trinkwasser. Die Ratten wurden 24 Stunden nach oraler Gabe getötet, der Magen entommen, unter fließendem Wasser gereinigt und auf Schleimhautlösionen inspiziert. Als Ulzera galten alle makroskopisch sichtbaren Läsionen. Bestimmt wurde der Anteil der Tiere mit Ulzera pro dosi und die UD50 nach Litchfield und Wilcoxon (J. Pharmacol. exp. Ther. 96, 99 (1949)).

[3] = tested on: männlichen Sprague-Dawley Ratten; test: as above; assay type: in vivo; details: fasted rats, killed 24 h after dose, UD50 by Litchfield and Wilcoxon
From the text: as §1

NMRI-Mäusen = details: literature value (Barnes and Eltherington, Drug Dosage in Laboratory Animals, 1973, p. 199); cited from earlier work
[4] = oral, daily from day 1 to 17, reduction of paw volume increase vs. control, ED50 read graphically from dose-response curve

Compound	ED50 [1, 4]	Therapeut. Index UD50 / ED50 [1]	LD50 at 168 h (Acute toxicity)	TD50 at 24 h [2]	Adjuvans-Arthritis ED50 ([1]; oral, daily from day 1 to 17, reduction of paw volume increase vs. control, ED50 read graphically from dose-response curve, 24480 min)	Ulzerogenität UD50 [3]	Toxizität LD50 (Maus i.p.) (NMRI-Mäusen)
CCc1oncc1C(=O)Nc1ccc(C(F)(F)F)cc1 [Beispiel 1, N-(4-Trifluormethylphenyl)-5-äthylisoxazol-4-carboxamid]	6 mg/kg	12	150 to 300 mg/kg	70 mg/kg	–	–	–
O=C(Nc1ccc(C(F)(F)F)cc1)c1cnoc1C(F)(F)F [Beispiel 6, N-(4-Trifluormethylphenyl)-5-trifluormethylisoxazol-4-carboxamid]	3 mg/kg	27	–	80 mg/kg	–	–	–
Cc1oncc1C(=O)Nc1ccc(Oc2ccc(C(F)(F)F)cc2)cc1 [Beispiel 10, N-[4-(4-Trifluormethylphenoxy)-phenyl]-5-methylisoxazol-4-carboxamid]	8 mg/kg	29	150 to 300 mg/kg	230 mg/kg	–	–	–
Cc1oncc1C(=O)Nc1ccc(F)cc1 [P 25 24 959 Nr. 10, N-(4-Fluorphenyl)-5-methylisoxazol-4-carboxamid, reference compound]	15 mg/kg	17	200 to 400 mg/kg	250 mg/kg	–	–	–
Phenylbutazon [Phenyl=butazon, reference compound]	–	–	–	–	37 mg/kg	100 mg/kg	LD50 = 336^* mg/kg
